Values quoted from earlier work as cited in article PMC3249774 (Research in Pharmaceutical Sciences, 2011).

Test system: neuroblastoma cells
Settings: cells treated with DFO

CC(=O)N(O)CCCCCNC(=O)CCC(=O)N(O)CCCCCNC(=O)CCC(=O)N(O)CCCCCN [DFO]
Sensitivity of neuroblastoma cells relative to normal bone marrow cells: 10 fold
